Patent US11225505B2, “Antimicrobial polymyxin derivative compounds” (MONASH UNIVERSITY, priority 2015, dated 2022)
Where a SMILES comes first, the peptide text is derived from it. Bridges are numbered along the chain shown (N, C = ends). [ ]: non-standard residue; d: D form. The star is where a group is joined. X1 = O=C(c1ncc(Cl)cc1Cl)*; Dab = NCC[C@H](N)C(=O)O; Abu = CC[C@H](N)C(=O)O; Dap = NC[C@H](N)C(=O)O

Test system: A. baumannii FADDI-AB030
Assay: In vivo efficacy in a neutropenic mouse lung infection model
Design: species or system Acinetobacter baumannii
Conditions: 24 h
Protocol: The in vivo efficacy of several compounds was examined in a neutropenic mouse lung infection model against the clinical isolate A. baumannii FADDI-AB030. This Gram-negative isolate is highly multi drug-resistant as illustrated in Table 7.
FADDI-AB030 was subcultured on nutrient agar plates from the −80° C. stock. One colony of the bacterial strain was dispersed in 10-mL CAMHB and incubated overnight. On day 2, an aliquot (0.2 mL) of overnight culture suspension was dispersed in 20-mL CAMHB and incubated for 1.5-2.5 h for production of early log-phase growth bacterial culture. The bacteria in the early log-phase growth suspension were concentrated by centrifugation (3,220 g for 10 min) and re-suspended in sterile 0.9% saline for inoculation into mice. The bacterial cell concentration (colony forming unit [CFU]/mL) in saline was estimated by determining the optical density (OD) of the suspension at 600 nm, and confirmed by plating the suspension on nutrient agar plates. […]
Lung infection was produced as follows. […] Bacterial burdens in lungs were determined at 2 h after inoculation (untreated controls) and 24 h later (untreated controls and compound-treated mice). […] The bacterial colonies on the agar plate were counted and the log10 CFU/lung in each mouse was calculated (FIG. 1). […]

CC[C@@H]1NC(=O)[C@@H](CC(C)C)NC(=O)[C@H](CCN)NC(=O)[C@@H](NC(=O)[C@H](CN)NC(=O)[C@@H](NC(=O)[C@H](CCN)NC(=O)c2ncc(Cl)cc2Cl)[C@@H](C)O)CCNC(=O)[C@H]([C@@H](C)O)NC(=O)[C@H](CCN)NC(=O)[C@H](CCN)NC1=O [Compound 1] (X1-[Dab]T[Dap][Dab][Dab][dL][Abu][Dab][Dab]T; lactam 4-C)
in vivo antibacterial efficacy (bacterial burden in lung, FIG. 1) compared with polymyxin B at the same dose (45 mg/kg total, neutropenic mice): improved in vivo antibacterial efficacy | bacterial cells in the lung (FIG. 2) (total doses of 90 and 180 mg/kg): no longer detectable in the lung
